≈ marks a conversion by molar mass, not a printed value.
Columns and labels:
Format in all cases: functional
Staphylococcus aureus [1] = assay: Antimicrobial activity against Staphylococcus aureus 85
Staphylococcus aureus [2] = assay: Antimicrobial activity against Staphylococcus aureus ATCC 105487
Enterococcus faecalis = assay: Antimicrobial activity against Enterococcus faecalis ATCC 29212
[3] = test system: Mycobacterium tuberculosis; assay: Antimicrobial activity against Mycobacterium tuberculosis H37Rv
[4] = test system: Mycobacterium tuberculosis; assay: Antimicrobial activity against Mycobacterium tuberculosis H160
Escherichia coli = assay: Antimicrobial activity against Escherichia coli ATCC 25922
Staphylococcus aureus [5] = assay: Antimicrobial activity against Staphylococcus aureus 52
Kluyveromyces marxianus = assay: Antimicrobial activity against Candida pseudotropicalis
Bacillus subtilis = assay: Antimicrobial activity against Bacillus subtilis ATCC 6633
Pseudomonas aeruginosa = assay: Antimicrobial activity against Pseudomonas aeruginosa ATCC 27753
Staphylococcus aureus [6] = assay: Antimicrobial activity against Staphylococcus aureus ATCC 25923
Candida albicans = assay: Antimicrobial activity against Candida albicans
Staphylococcus aureus [7] = assay: Antimicrobial activity against Staphylococcus aureus 87
[8] = test system: Mycobacterium tuberculosis; assay: Antimicrobial activity against Mycobacterium tuberculosis H190

Q: With `CCCCCCCCCCCC(=O)OCC(CO[C@@H]1O[C@H](CO)[C@@H](O)[C@H](O)[C@H]1O)OC(=O)CCCCCCCCCCC` (mixture of isomers) as the compound, how does the MIC (Staphylococcus aureus [1]) read?
A: > 128 µg/mL

Q: What about the MIC (Staphylococcus aureus [2]) of the same compound?
A: > 128 µg/mL

Q: And the MIC (Enterococcus faecalis)?
A: > 128 µg/mL

Q: What about the MIC [3] of the same compound?
A: > 128 µg/mL

Q: What about the MIC [4] of the same compound?
A: > 128 µg/mL

Q: And the MIC (Escherichia coli)?
A: > 128 µg/mL

Q: And the MIC (Staphylococcus aureus [5])?
A: > 128 µg/mL

Q: What about the MIC (Kluyveromyces marxianus) of the same compound?
A: > 128 µg/mL

Q: What about the MIC (Bacillus subtilis) of the same compound?
A: > 128 µg/mL

Q: What about the MIC (Pseudomonas aeruginosa) of the same compound?
A: > 128 µg/mL

Q: And the MIC (Staphylococcus aureus [6])?
A: > 128 µg/mL

Q: What about the MIC (Candida albicans) of the same compound?
A: > 128 µg/mL

Q: What about the MIC (Staphylococcus aureus [7]) of the same compound?
A: > 128 µg/mL

Q: What about the MIC [8] of the same compound?
A: > 128 µg/mL

Q: Which results are given for `CC/C=C/C/C=C/C/C=C/CCCCCCCC(=O)OC(COC(=O)CCCCCCC)CO[C@@H]1O[C@H](CO)[C@@H](O)[C@H](O)[C@H]1O` (mixture of isomers)?
A: MIC (Staphylococcus aureus [1]): > 128 µg/mL; MIC (Staphylococcus aureus [2]): > 128 µg/mL; MIC (Enterococcus faecalis): > 128 µg/mL; MIC [3]: 64 µg/mL; MIC [4]: 128 µg/mL; MIC (Escherichia coli): > 128 µg/mL; MIC (Staphylococcus aureus [5]): > 128 µg/mL; MIC (Kluyveromyces marxianus): > 128 µg/mL; MIC (Bacillus subtilis): 128 µg/mL; MIC (Pseudomonas aeruginosa): > 128 µg/mL; MIC (Staphylococcus aureus [6]): > 128 µg/mL; MIC (Candida albicans): > 128 µg/mL; MIC (Staphylococcus aureus [7]): 64 µg/mL; MIC [8]: 64 µg/mL

Q: Which results are given for `CCCCC/C=C/C/C=C/CCCCCCCC(=O)OCC(CO[C@@H]1O[C@H](CO)[C@@H](O)[C@H](O)[C@H]1O)OC(=O)CCCCCCC/C=C/C/C=C/CCCCC` (mixture of isomers)?
A: MIC (Staphylococcus aureus [1]): > 128 µg/mL; MIC (Staphylococcus aureus [2]): > 128 µg/mL; MIC (Enterococcus faecalis): > 128 µg/mL; MIC [3]: 64 µg/mL; MIC [4]: 64 µg/mL; MIC (Escherichia coli): > 128 µg/mL; MIC (Staphylococcus aureus [5]): > 128 µg/mL; MIC (Kluyveromyces marxianus): > 128 µg/mL; MIC (Bacillus subtilis): 128 µg/mL; MIC (Pseudomonas aeruginosa): > 128 µg/mL; MIC (Staphylococcus aureus [6]): > 128 µg/mL; MIC (Candida albicans): > 128 µg/mL; MIC (Staphylococcus aureus [7]): 64 µg/mL; MIC [8]: 128 µg/mL

Q: Which results are given for `CC/C=C/C/C=C/C/C=C/CCCCCCCC(=O)OCC(CO[C@@H]1O[C@H](CO)[C@@H](O)[C@H](O)[C@H]1O)OC(=O)CCCCCCC/C=C/C/C=C/C/C=C/CC` (stereo not given in full)?
A: MIC (Staphylococcus aureus [1]): > 128 µg/mL; MIC (Staphylococcus aureus [2]): > 128 µg/mL; MIC (Enterococcus faecalis): > 128 µg/mL; MIC [3]: > 128 µg/mL; MIC [4]: > 128 µg/mL; MIC (Escherichia coli): > 128 µg/mL; MIC (Staphylococcus aureus [5]): > 128 µg/mL; MIC (Kluyveromyces marxianus): > 128 µg/mL; MIC (Bacillus subtilis): > 128 µg/mL; MIC (Pseudomonas aeruginosa): > 128 µg/mL; MIC (Staphylococcus aureus [6]): > 128 µg/mL; MIC (Candida albicans): > 128 µg/mL; MIC (Staphylococcus aureus [7]): > 128 µg/mL; MIC [8]: > 128 µg/mL

Q: Which MIC (Staphylococcus aureus [1]) does the source give for `CCCCCCCC(=O)OCC(CO[C@@H]1O[C@H](CO)[C@@H](O)[C@H](O)[C@H]1O)OC(=O)CCCCCCC` (mixture of isomers) here?
A: 16 µg/mL

Q: And the MIC (Staphylococcus aureus [2])?
A: 32 µg/mL

Q: And the MIC (Enterococcus faecalis)?
A: 32 µg/mL

Q: What about the MIC [3] of the same compound?
A: 64 µg/mL

Q: And the MIC [4]?
A: 64 µg/mL

Q: And the MIC (Escherichia coli)?
A: > 128 µg/mL

Q: And the MIC (Staphylococcus aureus [5])?
A: > 128 µg/mL

Q: And the MIC (Kluyveromyces marxianus)?
A: > 128 µg/mL

Q: And the MIC (Bacillus subtilis)?
A: 16 µg/mL

Q: And the MIC (Pseudomonas aeruginosa)?
A: > 128 µg/mL

Q: And the MIC (Staphylococcus aureus [6])?
A: 16 µg/mL

Q: And the MIC (Candida albicans)?
A: > 128 µg/mL

Q: What about the MIC (Staphylococcus aureus [7]) of the same compound?
A: 16 µg/mL

Q: And the MIC [8]?
A: 64 µg/mL

Q: What does the source list for `CCCCC/C=C/C/C=C/CCCCCCCC(=O)OC(COC(=O)CCCCCCCCC)CO[C@@H]1O[C@H](CO)[C@@H](O)[C@H](O)[C@H]1O` (mixture of isomers)?
A: MIC (Staphylococcus aureus [1]): 32 µg/mL; MIC (Staphylococcus aureus [2]): 32 µg/mL; MIC (Enterococcus faecalis): 64 µg/mL; MIC [3]: > 128 µg/mL; MIC [4]: > 128 µg/mL; MIC (Escherichia coli): > 128 µg/mL; MIC (Staphylococcus aureus [5]): > 128 µg/mL; MIC (Kluyveromyces marxianus): > 128 µg/mL; MIC (Bacillus subtilis): 128 µg/mL; MIC (Pseudomonas aeruginosa): > 128 µg/mL; MIC (Staphylococcus aureus [6]): > 128 µg/mL; MIC (Candida albicans): > 128 µg/mL; MIC (Staphylococcus aureus [7]): > 32 µg/mL; MIC [8]: > 128 µg/mL

Q: For `CCCCCCCCCCCCCCCCCC(=O)OCC(CO[C@@H]1O[C@H](CO)[C@@H](O)[C@H](O)[C@H]1O)OC(=O)CCCCCCCCCCCCCCCCC` (mixture of isomers), which MIC (Staphylococcus aureus [1]) is on record?
A: > 128 µg/mL

Q: And the MIC (Staphylococcus aureus [2])?
A: > 128 µg/mL

Q: What about the MIC (Enterococcus faecalis) of the same compound?
A: > 128 µg/mL

Q: What about the MIC [3] of the same compound?
A: > 128 µg/mL

Q: And the MIC [4]?
A: > 128 µg/mL

Q: What about the MIC (Escherichia coli) of the same compound?
A: > 128 µg/mL

Q: And the MIC (Staphylococcus aureus [5])?
A: > 128 µg/mL

Q: What about the MIC (Kluyveromyces marxianus) of the same compound?
A: > 128 µg/mL

Q: What about the MIC (Bacillus subtilis) of the same compound?
A: > 128 µg/mL

Q: And the MIC (Pseudomonas aeruginosa)?
A: > 128 µg/mL

Q: What about the MIC (Staphylococcus aureus [6]) of the same compound?
A: > 128 µg/mL

Q: And the MIC (Candida albicans)?
A: > 128 µg/mL

Q: And the MIC (Staphylococcus aureus [7])?
A: > 128 µg/mL

Q: And the MIC [8]?
A: > 128 µg/mL

Q: For `Clc1ccc(COC(Cn2ccnc2)c2ccc(Cl)cc2Cl)c(Cl)c1` (stereo not given) [MICONAZOLE], which MIC (Kluyveromyces marxianus) is on record?
A: 0.5 µg/mL (≈ 1.2 µM)

Q: And the MIC (Candida albicans)?
A: 8 µg/mL (≈ 19.2 µM)
